Source: patent US12084437B2, “Halo-substituted piperidines as orexin receptor modulators” (AstraZeneca AB, priority 2016, dated 2024)

Assay: Metabolic stability and intrinsic clearance in rat hepatocytes
Assay type: in vitro ADME
Details: cryopreserved rat hepatocytes (suspension), 1 uM compound, 37 C, read-out: rHeps CLint
Description: Stock solutions of compounds and control compounds were prepared in 10 mM in appropriate solvent, such as DMSO. L-15 medium was placed in a 37° C. water bath and allowed to warm for at least 15 minutes prior to use. A quenching plate was prepared by adding 80 μL of acetonitrile to each well of a 96-well plate. In a new 96-well plate, the 10 mM stock solution of test compounds and control compounds were diluted to 100 μM by combining 198 μL of acetonitrile and 2 μL of the 10 mM stock. A vial of cryopreserved rat hepatocytes were removed from storage and maintained at cryogenic temperatures until thawing. The cells were thawed as quickly as possible, in a 37° C. water bath under gentle shaking. The vials were kept in the water bath until all ice crystals have dissolved and are no longer visible. After the thawing was completed, the vials were sprayed with 70% ethanol and transferred to a biosafety cabinet. […]
Cells were then counted with Cellometer® Vision. […] Counted cells were then diluted with incubation medium to a working cell density of 1.0×10^6 viable cells/mL. […]
All calculations were carried out using Microsoft Excel. Peak areas were determined from extracted ion chromatograms. in vitro half-life (t½) of parent compound was determined by regression analysis of the Ln percent parent disappearance vs. time curve.

Row | SMILES | hepatocyte CLint at 1 µM [µL/min/1e6 cells]
1 | C[C@@H]1CC(F)(F)CN(C(=O)c2nn(C)cc2-c2ccc(Cl)cc2)[C@@H]1CNc1cnc(C(F)(F)F)cn1 [Compound 129, (4-(4-chlorophenyl)-1-methyl-1H-pyrazol-3-yl)((2S,3R)-5,5-difluoro-3-methyl-2-(((5-(trifluoromethyl)pyrazin-2-yl)amino)methyl)piperidin-1-yl)methanone] | 3.8
2 | Cc1nc(C(=O)N2CC(F)(F)C[C@@H](C)[C@H]2CNc2ccc(C(F)(F)F)cn2)c(-c2ccc(F)cc2)s1 [Compound 185, ((2S,3R)-5,5-difluoro-3-methyl-2-(((5-(trifluoromethyl)pyridin-2-yl)amino)methyl)piperidin-1-yl)(5-(4-fluorophenyl)-2-methylthiazol-4-yl)methanone] | 107
